Measurements as given in patent US20130281512A1, “AGENTS FOR TREATING DISORDERS INVOLVING MODULATION OF RYANODINE RECEPTORS” (LES LABORATOIRES SERVIER, priority 2012, published 2013).

Columns and labels:
[1] = target: T1, PKA-phosphorylated RyR2 (Homo sapiens, UniProt Q92736); assay: Calstabin2 rebinding assay: binding of calstabin2 to PKA-phosphorylated RyR2 (cardiac SR, immunoblot); settings: 100 nM compound; immunoblot with calstabin2 antibody
T1 construct: Cardiac SR membranes were prepared as previously described; from tissue; host or cells: cardiac sarcoplasmic reticulum (heart muscle microsomes)
T1 sequence (Q92736 whole entry): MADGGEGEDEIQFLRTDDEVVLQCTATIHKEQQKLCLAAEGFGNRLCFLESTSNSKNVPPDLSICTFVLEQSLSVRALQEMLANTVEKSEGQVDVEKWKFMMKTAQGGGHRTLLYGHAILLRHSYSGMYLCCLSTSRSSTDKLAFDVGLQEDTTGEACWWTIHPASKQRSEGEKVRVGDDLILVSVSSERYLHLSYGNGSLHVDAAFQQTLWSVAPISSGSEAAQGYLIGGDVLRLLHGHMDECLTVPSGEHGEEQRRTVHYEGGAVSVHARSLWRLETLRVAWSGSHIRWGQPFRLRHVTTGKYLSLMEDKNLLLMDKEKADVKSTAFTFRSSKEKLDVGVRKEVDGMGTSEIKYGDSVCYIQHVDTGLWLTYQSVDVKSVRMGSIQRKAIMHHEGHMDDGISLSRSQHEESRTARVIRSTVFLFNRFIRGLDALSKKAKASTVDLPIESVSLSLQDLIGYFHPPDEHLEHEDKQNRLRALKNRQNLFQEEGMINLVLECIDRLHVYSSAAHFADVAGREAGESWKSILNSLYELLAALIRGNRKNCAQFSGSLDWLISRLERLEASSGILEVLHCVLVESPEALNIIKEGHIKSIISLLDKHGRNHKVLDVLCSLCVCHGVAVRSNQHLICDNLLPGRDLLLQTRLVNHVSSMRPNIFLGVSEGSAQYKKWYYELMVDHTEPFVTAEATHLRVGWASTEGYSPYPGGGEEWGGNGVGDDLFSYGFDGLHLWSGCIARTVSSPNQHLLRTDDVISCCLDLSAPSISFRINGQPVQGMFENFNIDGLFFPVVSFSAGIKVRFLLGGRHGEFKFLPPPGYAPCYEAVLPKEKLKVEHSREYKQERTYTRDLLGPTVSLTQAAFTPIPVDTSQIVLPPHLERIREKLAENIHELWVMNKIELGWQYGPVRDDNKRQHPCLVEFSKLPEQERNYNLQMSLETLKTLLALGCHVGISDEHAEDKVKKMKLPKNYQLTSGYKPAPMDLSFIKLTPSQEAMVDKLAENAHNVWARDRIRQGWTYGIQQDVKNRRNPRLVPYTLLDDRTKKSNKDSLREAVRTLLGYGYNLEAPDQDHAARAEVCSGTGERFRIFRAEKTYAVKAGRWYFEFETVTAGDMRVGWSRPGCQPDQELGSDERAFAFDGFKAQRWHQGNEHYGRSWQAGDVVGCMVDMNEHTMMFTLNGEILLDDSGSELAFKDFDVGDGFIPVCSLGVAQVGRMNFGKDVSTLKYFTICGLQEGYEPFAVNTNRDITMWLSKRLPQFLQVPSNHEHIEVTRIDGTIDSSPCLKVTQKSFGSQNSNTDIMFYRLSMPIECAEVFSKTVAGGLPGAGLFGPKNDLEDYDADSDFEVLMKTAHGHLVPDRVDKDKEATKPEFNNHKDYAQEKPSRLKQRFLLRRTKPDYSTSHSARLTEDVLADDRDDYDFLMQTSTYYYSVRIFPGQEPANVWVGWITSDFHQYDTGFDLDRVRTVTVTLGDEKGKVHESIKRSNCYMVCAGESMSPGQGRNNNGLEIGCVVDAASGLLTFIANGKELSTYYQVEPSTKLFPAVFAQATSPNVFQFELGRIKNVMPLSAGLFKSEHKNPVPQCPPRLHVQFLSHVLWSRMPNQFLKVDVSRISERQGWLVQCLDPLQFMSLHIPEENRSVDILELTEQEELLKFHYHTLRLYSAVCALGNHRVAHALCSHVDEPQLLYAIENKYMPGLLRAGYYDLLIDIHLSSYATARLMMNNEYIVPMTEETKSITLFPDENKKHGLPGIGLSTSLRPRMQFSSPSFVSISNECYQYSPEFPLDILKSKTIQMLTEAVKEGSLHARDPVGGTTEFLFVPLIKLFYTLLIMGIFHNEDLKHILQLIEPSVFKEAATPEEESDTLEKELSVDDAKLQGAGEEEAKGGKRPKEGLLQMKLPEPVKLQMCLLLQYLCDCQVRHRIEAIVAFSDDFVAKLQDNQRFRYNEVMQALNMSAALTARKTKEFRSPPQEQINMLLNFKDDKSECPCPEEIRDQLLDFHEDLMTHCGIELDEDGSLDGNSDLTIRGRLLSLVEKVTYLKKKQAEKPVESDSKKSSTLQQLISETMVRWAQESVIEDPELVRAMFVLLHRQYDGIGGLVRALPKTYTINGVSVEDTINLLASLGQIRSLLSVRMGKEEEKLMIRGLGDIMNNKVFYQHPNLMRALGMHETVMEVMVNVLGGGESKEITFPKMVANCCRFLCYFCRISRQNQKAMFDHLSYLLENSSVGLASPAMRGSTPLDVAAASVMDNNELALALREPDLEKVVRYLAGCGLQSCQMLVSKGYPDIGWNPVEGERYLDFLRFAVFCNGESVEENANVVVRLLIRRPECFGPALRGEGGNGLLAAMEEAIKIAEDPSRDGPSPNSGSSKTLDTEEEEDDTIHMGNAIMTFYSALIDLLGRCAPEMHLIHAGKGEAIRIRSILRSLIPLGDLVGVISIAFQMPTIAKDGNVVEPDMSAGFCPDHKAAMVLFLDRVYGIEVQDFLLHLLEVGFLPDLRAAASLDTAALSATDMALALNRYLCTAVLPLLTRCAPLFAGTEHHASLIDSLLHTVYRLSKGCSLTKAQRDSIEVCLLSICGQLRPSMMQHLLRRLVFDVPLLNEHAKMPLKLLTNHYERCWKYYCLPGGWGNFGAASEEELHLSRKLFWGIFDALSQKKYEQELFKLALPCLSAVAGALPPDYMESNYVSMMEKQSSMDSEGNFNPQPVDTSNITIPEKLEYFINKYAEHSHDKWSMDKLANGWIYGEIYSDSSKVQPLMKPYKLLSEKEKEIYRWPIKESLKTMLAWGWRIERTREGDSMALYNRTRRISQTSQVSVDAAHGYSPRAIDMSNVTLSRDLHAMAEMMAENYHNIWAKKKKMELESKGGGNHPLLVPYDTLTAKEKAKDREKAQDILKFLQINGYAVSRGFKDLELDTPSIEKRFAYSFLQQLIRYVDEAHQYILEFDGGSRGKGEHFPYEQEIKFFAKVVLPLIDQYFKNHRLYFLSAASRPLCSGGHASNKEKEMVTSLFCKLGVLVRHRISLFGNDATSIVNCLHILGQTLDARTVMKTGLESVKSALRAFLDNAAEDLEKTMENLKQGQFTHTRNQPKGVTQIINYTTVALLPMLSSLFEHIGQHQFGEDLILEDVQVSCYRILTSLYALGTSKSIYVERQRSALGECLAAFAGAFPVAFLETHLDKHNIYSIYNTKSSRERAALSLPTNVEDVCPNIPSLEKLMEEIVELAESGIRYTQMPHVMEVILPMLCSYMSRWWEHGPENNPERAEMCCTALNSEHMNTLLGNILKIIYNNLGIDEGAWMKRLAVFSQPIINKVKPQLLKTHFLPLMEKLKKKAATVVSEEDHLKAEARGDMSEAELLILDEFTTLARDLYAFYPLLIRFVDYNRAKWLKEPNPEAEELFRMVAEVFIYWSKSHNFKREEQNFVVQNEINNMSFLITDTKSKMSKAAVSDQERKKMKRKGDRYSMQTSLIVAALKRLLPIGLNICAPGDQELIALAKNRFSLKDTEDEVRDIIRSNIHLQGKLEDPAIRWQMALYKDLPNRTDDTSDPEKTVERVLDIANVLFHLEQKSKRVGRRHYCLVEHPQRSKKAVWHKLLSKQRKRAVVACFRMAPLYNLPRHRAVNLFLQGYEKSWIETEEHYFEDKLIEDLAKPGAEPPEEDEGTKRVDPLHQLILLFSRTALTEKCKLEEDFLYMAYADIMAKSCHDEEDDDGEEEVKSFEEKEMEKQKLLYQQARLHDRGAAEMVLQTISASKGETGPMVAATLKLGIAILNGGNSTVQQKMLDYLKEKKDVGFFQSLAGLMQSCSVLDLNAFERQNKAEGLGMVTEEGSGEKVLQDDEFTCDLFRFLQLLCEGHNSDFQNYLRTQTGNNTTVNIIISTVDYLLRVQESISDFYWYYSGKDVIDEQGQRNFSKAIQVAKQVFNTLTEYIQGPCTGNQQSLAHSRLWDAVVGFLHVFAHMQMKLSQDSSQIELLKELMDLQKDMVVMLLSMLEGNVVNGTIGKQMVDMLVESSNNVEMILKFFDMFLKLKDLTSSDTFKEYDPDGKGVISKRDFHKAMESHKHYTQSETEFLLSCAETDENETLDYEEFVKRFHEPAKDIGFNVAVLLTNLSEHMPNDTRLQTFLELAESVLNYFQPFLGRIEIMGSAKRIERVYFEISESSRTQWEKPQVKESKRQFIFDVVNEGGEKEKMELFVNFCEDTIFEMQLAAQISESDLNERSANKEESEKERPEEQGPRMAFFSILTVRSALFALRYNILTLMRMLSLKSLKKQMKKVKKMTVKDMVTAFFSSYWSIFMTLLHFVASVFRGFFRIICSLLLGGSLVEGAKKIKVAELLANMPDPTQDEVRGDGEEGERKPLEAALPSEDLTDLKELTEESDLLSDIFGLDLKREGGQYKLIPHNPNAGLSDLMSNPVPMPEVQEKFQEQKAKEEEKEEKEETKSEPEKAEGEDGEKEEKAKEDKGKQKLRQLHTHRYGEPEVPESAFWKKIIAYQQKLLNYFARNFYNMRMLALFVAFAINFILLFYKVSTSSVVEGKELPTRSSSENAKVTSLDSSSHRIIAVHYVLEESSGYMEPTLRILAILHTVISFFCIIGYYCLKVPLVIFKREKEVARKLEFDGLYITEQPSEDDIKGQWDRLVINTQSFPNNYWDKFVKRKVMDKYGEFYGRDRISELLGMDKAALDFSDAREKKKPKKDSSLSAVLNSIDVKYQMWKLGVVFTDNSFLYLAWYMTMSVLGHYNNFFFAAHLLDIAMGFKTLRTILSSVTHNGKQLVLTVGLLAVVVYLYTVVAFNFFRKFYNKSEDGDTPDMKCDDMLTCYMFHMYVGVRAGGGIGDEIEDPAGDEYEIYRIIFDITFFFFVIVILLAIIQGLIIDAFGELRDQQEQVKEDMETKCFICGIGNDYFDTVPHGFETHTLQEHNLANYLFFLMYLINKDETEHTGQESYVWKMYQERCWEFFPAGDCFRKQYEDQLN
T1 sequence (P68106 whole entry partner): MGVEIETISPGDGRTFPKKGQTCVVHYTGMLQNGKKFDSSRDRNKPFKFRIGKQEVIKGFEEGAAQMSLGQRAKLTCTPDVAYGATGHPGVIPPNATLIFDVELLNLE
Procedure: Cardiac SR membranes were prepared as previously described (Marx et al., 2000; Kaftan et al., Circ. Res., 1996, 78:990-97). Immunoblotting of microsomes (50 μg) was performed as described, with anti-calstabin antibody (1:1,000) (Jayaraman et al., J. Biol. Chem., 1992, 267:9474-77) for 1 hr at room temperature (Reiken et al., Circulation, 107:2459-66, 2003). After incubation with HRP-labeled anti-rabbit IgG (1:5,000 dilution; Transduction Laboratories, Lexington, Ky.), the blots were developed using ECL (Amersham Pharmacia, Piscataway, N.J.) and detected on x-ray film, or exposed to secondary antibodies labeled with infrared Dye and visualized on equipment from Li-Cor Biosciences (model Odyssey). Unless otherwise stated, compounds were tested at a concentration of 100 nM. A representative calstabin2 binding assay is presented below.
A. PKA phosphorylation of cardiac sarcoplasmic reticulum (CSR)
B. Reaction mixture was set up in 1.5 ml microfuge tube. 200 μg of cardiac SR were added to a reaction mix of kinase buffer, PKA and ATP to a final volume of 100 (Reaction mix below). ATP was added last to initiate the reaction.
20 μl Sample (cardiac SR, 2 or 10 μg/μl) 10 μl=10× Kinase buffer (80 mM MgCl2, 100 mM EGTA, 500 mM Tris/PIPES), pH=7.0
20 μl PKA (2units/ul) (Sigma # P2645)
40 μl=distilled H2O • 1. The tubes were incubated at 30° C. for 30 minutes. • 2. The reaction mix was then transferred to 0.5 ml thick walled glass tubes. • 3. The glass tubes containing the reaction mix were centrifuged for 10 min at 50,000×g in Sorvall Centrifuge RCM120EX using S120AT3 rotor. Centrifugation at 50,000×g for 10 min is sufficient to isolate the microsomes. • 4. The resulting pellet was washed 4 times with binding buffer (10 mM Imidazol 300 mM Sucrose, pH=7.4). Each time 100111 of 1× binding buffer was added to the tube to wash the pellet. The pellet was resuspended by flushing up and down using the pipette tip. After the last spin 501.11 of binding buffer was added and the pellets from all tubes were pooled. The reaction was stored at −20° C. • 5. Phosphorylation was confirmed by separating approximately 10 μg of CSR by 6% Polyacylamide gel electrophoresis (PAGE) and analyzing the immunoblots for both total RyR (5029 Ab, 1:3000 dilution or Monoclonal Ab from Affinity Bioreagents, Cat # MA3-916, 1:2000 dilution) and PKA phosphorylated RyR2 (P2809 Ab, 1:10000 dilution). • 6. Aliquots can be stored at −80 C.
C. Calstabin Rebinding Assay
• 1. PKA-phosphorylated CSR (approximately 20 μg) was incubated with 250 nM Calstabin 2 in 100111 binding buffer (as described above) with or without compounds. • 2. […] Calstabin2 binding was detected with anti-FKBP (Jayaraman et al., J. Biol. Chem. 1992; 267:9474-77, 1:2000) primary antibody and appropriate secondary antibody.

[2] = Metabolic stability in human hepatic microsomes (Clint, predicted MF %); format: in vitro ADME
Procedure: Compound solubilization: Stock solutions were made in DMSO, and working solutions in water containing 1 mg/ml BSA.
Prediction of metabolic bioavailability: Metabolic bioavailability predictions (MF %) were based on in vitro metabolic stability measurements with hepatic microsomes assuming total absorption. Briefly, unchanged drugs were quantified by LC-MS-MS following incubation (10^−7M) with rat and human hepatic microsomes (0.33 mg protein/ml) after 0, 5, 15, 30 and 60 min of incubation in presence of NADPH (1 mM). Enzymatic reaction was stopped with methanol (v/v) and proteins were precipitated by centrifugation. The in vitro intrinsic clearances (Clint_mic) expressed as ml/min/g protein were the slope (after LN linearization) of the unchanged drug remaining concentration versus incubation time. In vitro Clint were then scaled up to in vivo whole body (vivoClint) using 0.045 mg prot/kg of liver and liver weight of 11 g for the rat and 1.2 kg for Man.

[3] = system: human hepatocytes; assay: Metabolic stability in human hepatocytes; format: in vitro ADME
Procedure: Compound solubilization: Stock solutions were made in DMSO, and working solutions in William medium containing 1/10 rat plasma or 1/4 human plasma.
Metabolic stability determination: Compounds were incubated at 10^−7 M with isolated hepatocytes (6E+5 cells/ml for rat hepatocytes and 4E+5 cells/ml for human hepatocytes) at 37° C. in plasma from the same species diluted in Wiliams medium (1/10 dilution for rat and 1/4 dilution for human). Sampling times were performed at 0, 10, 20, 30, 60 and 120 min and enzymatic reaction stopped with methanol (v/v). Proteins were precipitated by centrifugation and the supernatant was analyzed by LC/MS/MS. Clint expressed as ml/min/g protein were calculated as for hepatic microsomes using a ratio of 0.134 mg protein/ml for 4E+5 cells/ml for human and 0.201 mg protein/ml for 6E+5 cells/ml for rat. The presence of the reference drug and the potential metabolite was checked by LC/MS/MS during the assay in each sample.

SMILES: COc1ccc2c(c1)CN(Cc1ccc(C(=O)O)cc1)CCS2 [Compound 1, 4-((7-Methoxy-2,3-dihydrobenzo[f][1,4]thiazepin-4(5H)-yl)methyl)benzoic acid]
- binding of calstabin2 to PKA-phosphorylated RyR2 [1]: prevented the dissociation of calstabin2 from PKA-phosphorylated RyR2 and/or enhanced the (re)binding of calstabin2 to PKA-phosphorylated RyR
- Class (metabolic bioavailability) [2]: high
- Clint_mic man (in vitro intrinsic clearance) ([2]; 10^-7 M, 0.33 mg protein/ml, NADPH): 9.1 ml/min/gprot
- MF mic % (metabolic bioavailability) ([2]; predicted from Clint assuming total absorption): 75%
- MF human % [3]: 100%
- Clint ([3]; 4.00E+05 cells/ml, 10^-7 M): 0 ml/min/gprot
